Experimental data published in paper PMC3961628 (American Journal of Cardiovascular Drugs, 2013).
Like-named read-outs stand apart in the source and are kept apart here.

Tests used:
[1] = format: in vivo, healthy human subjects; settings: for AUC(0-t) / AUC(0-inf) / Cmax: geometric mean (% CV); for AUC(0-inf): AUCINF; for Cmax: C max; for half-life: T ½
Safety assessments = format: in vivo, healthy human subjects
[2] = Stability of apixaban in human plasma; format: in vitro ADME; settings: at −20 °C
[3] = cited from earlier work
[4] = single oral 20-mg radiolabeled dose; bile collected 3–8 h after dose; cited from earlier work
[5] = BDC rats, intravenous [14C]apixaban; cited from earlier work
[6] = BDC dogs, cited from earlier work
[7] = system: major uptake transporters; settings: cited from earlier work
[8] = cited from earlier work; remark: listed apart in the source
[9] = human, plasma, oral, 20 mg, Treatment A: apixaban 20 mg alone, n = 18
[10] = human, plasma, oral, Treatment B: apixaban 20 mg + activated charcoal 2 h after apixaban, n = 14
[11] = human, plasma, oral, Treatment C: apixaban 20 mg + activated charcoal 6 h after apixaban, n = 17
[12] = apixaban 2.5 mg solution released in the ascending colon
[13] = apixaban 2.5 mg solution released in the distal small bowel

For COc1ccc(-n2nc(C(N)=O)c3c2C(=O)N(c2ccc(N4CCCCC4=O)cc2)CC3)cc1 [apixaban, 1-(4-methoxyphenyl)-7-oxo-6-(4-(2-oxopiperidin-1-yl)phenyl)-4,5,6,7-tetrahydro-1H-pyrazolo[3,4-c]pyridine-3-carboxamide], which “T ½” value ([1]; Treatment A: apixaban 20 mg alone, n = 18, mean (SD)) is on record?
The value was 13.4 (5.1) h.

And the T max ([1]; Treatment C: apixaban 20 mg + activated charcoal 6 h after apixaban, n = 17, median (range))?
Its T max is 2.5 (1.5–4.0) h.

What about the “Decrease in apixaban exposure (AUCINF) vs apixaban alone” value ([1]; activated charcoal administered at 2 h post-dose) of the same molecule?
The value was 50%.

And the “Decrease in apixaban exposure (AUCINF) vs apixaban alone” value ([1]; activated charcoal administered at 6 h post-dose)?
Its value is 28%.

What about the “Effect of activated charcoal on C max or T max of apixaban” value ([1]; charcoal at 2 or 6 h post-dose) of the same molecule?
Its value is “no effect”.

And the Tmax ([1]; human, plasma, oral, 20 mg)?
The Tmax was 2.5 h.

What about the AUC(0-t) [1, 9] of the same molecule?
The AUC(0-t) was 4080 ng·h/mL.

What about the AUC(0-inf) [1, 9] of the same molecule?
The AUC(0-inf) was 4180 ng·h/mL.

What about the Cmax [1, 9] of the same molecule?
The Cmax was 380 ng/mL.

What about the AUC(0-t) ([1]; human, plasma, oral, Treatment B: apixaban 20 mg + activated charcoal 50 g 2 h after apixaban, n = 14) of the same molecule?
Its AUC(0-t) is 2010 ng·h/mL.

What about the AUC(0-t) ([1]; human, plasma, oral, Treatment C: apixaban 20 mg + activated charcoal 50 g 6 h after apixaban, n = 17) of the same molecule?
Its AUC(0-t) is 2950 ng·h/mL.

And the AUC(0-inf) [1, 10]?
Its AUC(0-inf) is 2030 ng·h/mL.

And the AUC(0-inf) [1, 11]?
Its AUC(0-inf) is 2980 ng·h/mL.

And the Cmax [1, 10]?
The Cmax was 366 ng/mL.

And the Cmax [1, 11]?
Its Cmax is 383 ng/mL.

And the half-life ([1]; human, plasma, oral, Treatment B: apixaban 20 mg + activated charcoal 2 h after apixaban, n = 14, mean (SD))?
Its half-life is 5.3 h.

And the half-life ([1]; human, plasma, oral, Treatment C: apixaban 20 mg + activated charcoal 6 h after apixaban, n = 17, mean (SD))?
The half-life was 4.9 h.

And the “Time for which mean plasma concentrations were quantifiable” value ([1]; single oral 20-mg dose without activated charcoal, LLOQ 1 ng/mL)?
Its value is “up to 72 h”.

What about the “Proportion of subjects reporting adverse events” value (Safety assessments; apixaban 20 mg alone) of the same molecule?
The value was 16.7%.

And the Tolerability (Safety assessments; healthy subjects, single 20-mg doses)?
Its Tolerability is “well tolerated”.

What about the “Stability in human plasma” value [2] of the same molecule?
The value was “at least 864 days”.

What about the Oral bioavailability ([3]; background statement) of the same molecule?
The Oral bioavailability was “approximately 50%”.

And the “Effect of food and changes in gastric pH on apixaban exposure” value [3]?
Its value is “no clinically relevant effect”.

What about the “Terminal half-life (T ½)” value [3] of the same molecule?
Its value is “approximately 12 h”.

And the “Time to peak plasma concentration (C max)” value ([3]; oral administration, immediate-release tablet, background statement)?
Its value is “approximately 3 h”.

What about the “Biliary excretion, share of total recovered radioactivity” value [4] of the same molecule?
The value was “less than 3%”.

What about the “Dose found in feces” value [5] of the same molecule?
The value was 20–30 % of the dose.

What about the “Dose found in feces” value ([6]; intravenous [14C]apixaban) of the same molecule?
Its value is 40–50 % of the dose.

And the “Effect of activated charcoal on fecal recovery and apparent systemic clearance” value [6]?
Its value is “increased fecal recovery and apparent systemic clearance”.

What about the “Substrate status for major uptake transporters” value [7] of the same molecule?
The value was “not a substrate”.

What about the “AUC(0–T) lower than with oral administration” value [8, 12] of the same molecule?
Its value is 84%.

And the “C max lower than with oral administration” value [8, 12]?
Its value is 90%.

What about the “AUC(0–T) lower than with oral administration” value [8, 13] of the same molecule?
Its value is “approximately 60%”.

What about the “C max lower than with oral administration” value [8, 13] of the same molecule?
Its value is “approximately 60%”.
